Assay results: PubChem BioAssay AID1918945 (Molecular Pharmacology Branch, DTP, NCI, 2023)

Tested on: 883617-216-R-J1-PDC complex spheroid viability
Experiment: Anticancer human tumor 883617-216-R-J1-PDC patient-derived bladder carcinoma cell line growth inhibition
Conditions: for IC50: curve of first compound; for viability, T/C: stronger effect = lower value
In short: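 Complex spheroids of tumor cells with HUVEC and human MSCs, exposed to iadademstat combined with other agents. Each agent tested in half-log steps from near clinical Cmax (else 10 microM top), DMSO ≤0.25%.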

[1] = second compound 0.1 µM, first compound 0.000316 µM
[2] = second compound 0.1 µM, first compound 0.001 µM
[3] = second compound 0.1 µM, first compound 0.00316 µM
[4] = second compound 0.1 µM, first compound 0.01 µM
[5] = second compound 0.1 µM, first compound 0.0316 µM
[6] = second compound 0.1 µM, first compound 0.1 µM
[7] = second compound 0.316 µM, first compound 0.000316 µM
[8] = second compound 0.316 µM, first compound 0.001 µM
[9] = second compound 0.316 µM, first compound 0.00316 µM
[10] = second compound 0.316 µM, first compound 0.01 µM
[11] = second compound 0.316 µM, first compound 0.0316 µM
[12] = second compound 0.316 µM, first compound 0.1 µM
[13] = second compound 1 µM, first compound 0.000316 µM
[14] = second compound 1 µM, first compound 0.001 µM
[15] = second compound 1 µM, first compound 0.00316 µM
[16] = second compound 1 µM, first compound 0.01 µM
[17] = second compound 1 µM, first compound 0.0316 µM
[18] = second compound 1 µM, first compound 0.1 µM
[19] = second compound 3.16 µM, first compound 0.000316 µM
[20] = second compound 3.16 µM, first compound 0.001 µM
[21] = second compound 3.16 µM, first compound 0.00316 µM
[22] = second compound 3.16 µM, first compound 0.01 µM
[23] = second compound 3.16 µM, first compound 0.0316 µM
[24] = second compound 3.16 µM, first compound 0.1 µM
[25] = second compound 10 µM, first compound 0.000316 µM
[26] = second compound 10 µM, first compound 0.001 µM
[27] = second compound 10 µM, first compound 0.00316 µM
[28] = second compound 10 µM, first compound 0.01 µM
[29] = second compound 10 µM, first compound 0.0316 µM
[30] = second compound 10 µM, first compound 0.1 µM
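Also: exposure lasted seven days after three days of spheroid growth.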
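For viability, T/C in this document: 100% = DMSO vehicle control luminescence.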

## CC(C)CC(NC(=O)C(Cc1ccccc1)NC(=O)c1cnccn1)B(O)O (stereo not given) + NC1CC1c1ccc(-c2cccc(O)c2)cc1
Second compound 0.1 µM
  IC50: 0.874 nM
Second compound 0.316 µM
  IC50: 0.885 nM
Second compound 1 µM
  IC50: 0.949 nM
Second compound 3.16 µM
  IC50: 0.798 nM
Second compound 10 µM
  IC50: 0.581 nM
[1]
  viability, T/C: 104%
[2]
  viability, T/C: 42.8%
[3]
  viability, T/C: 0.61%
[4]
  viability, T/C: 0.03%
[5]
  viability, T/C: 0.03%
[6]
  viability, T/C: 0.12%
[7]
  viability, T/C: 108%
[8]
  viability, T/C: 43.1%
[9]
  viability, T/C: 0.43%
[10]
  viability, T/C: 0.02%
[11]
  viability, T/C: 0.02%
[12]
  viability, T/C: 0.12%
[13]
  viability, T/C: 124%
[14]
  viability, T/C: 46.5%
[15]
  viability, T/C: 0.86%
[16]
  viability, T/C: 0.02%
[17]
  viability, T/C: 0.02%
[18]
  viability, T/C: 0.56%
[19]
  viability, T/C: 108%
[20]
  viability, T/C: 35.9%
[21]
  viability, T/C: 1.57%
[22]
  viability, T/C: 0.04%
[23]
  viability, T/C: 0.04%
[24]
  viability, T/C: 0.3%
[25]
  viability, T/C: 82.5%
[26]
  viability, T/C: 21%
[27]
  viability, T/C: 0.27%
[28]
  viability, T/C: 0.21%
[29]
  viability, T/C: 0.61%
[30]
  viability, T/C: 0.22%

## CC(C)CC(NC(=O)CNC(=O)c1cc(Cl)ccc1Cl)B1OC(=O)CC(CC(=O)O)(C(=O)O)O1 (stereo not given) + NC1CC1c1ccc(-c2cccc(O)c2)cc1
Second compound 0.1 µM
  IC50: 3.66 nM
Second compound 0.316 µM
  IC50: 3.45 nM
Second compound 1 µM
  IC50: 2.66 nM
Second compound 3.16 µM
  IC50: 2.61 nM
Second compound 10 µM
  IC50: 1.86 nM
[1]
  viability, T/C: 95.3%
[2]
  viability, T/C: 97.8%
[3]
  viability, T/C: 49.6%
[4]
  viability, T/C: 21.4%
[5]
  viability, T/C: 0.86%
[6]
  viability, T/C: 0.21%
[7]
  viability, T/C: 123%
[8]
  viability, T/C: 121%
[9]
  viability, T/C: 50.4%
[10]
  viability, T/C: 18%
[11]
  viability, T/C: 1%
[12]
  viability, T/C: 0.16%
[13]
  viability, T/C: 105%
[14]
  viability, T/C: 108%
[15]
  viability, T/C: 39.5%
[16]
  viability, T/C: 18.4%
[17]
  viability, T/C: 0.85%
[18]
  viability, T/C: 0.15%
[19]
  viability, T/C: 97.7%
[20]
  viability, T/C: 93.3%
[21]
  viability, T/C: 37.4%
[22]
  viability, T/C: 19.5%
[23]
  viability, T/C: 0.76%
[24]
  viability, T/C: 0.15%
[25]
  viability, T/C: 81.1%
[26]
  viability, T/C: 69.3%
[27]
  viability, T/C: 33.2%
[28]
  viability, T/C: 10.2%
[29]
  viability, T/C: 0.25%
[30]
  viability, T/C: 0.36%

## COc1cc(Nc2ncc3c(n2)-c2ccc(Cl)cc2C(c2c(F)cccc2OC)=NC3)ccc1C(=O)O + NC1CC1c1ccc(-c2cccc(O)c2)cc1
Second compound 0.1 µM
  IC50: 30.4 nM
Second compound 0.316 µM
  IC50: 30.5 nM
Second compound 1 µM
  IC50: 20.6 nM
Second compound 3.16 µM
  IC50: 18.8 nM
Second compound 10 µM
  IC50: 16.9 nM
[3]
  viability, T/C: 92.4%
[4]
  viability, T/C: 76.6%
[5]
  viability, T/C: 48.8%
[6]
  viability, T/C: 37.8%
Second compound 0.1 µM, first compound 0.316 µM
  viability, T/C: 37.3%
Second compound 0.1 µM, first compound 1 µM
  viability, T/C: 33.4%
[9]
  viability, T/C: 109%
[10]
  viability, T/C: 67.8%
[11]
  viability, T/C: 52.6%
[12]
  viability, T/C: 37.6%
Second compound 0.316 µM, first compound 0.316 µM
  viability, T/C: 36.7%
Second compound 0.316 µM, first compound 1 µM
  viability, T/C: 36%
[15]
  viability, T/C: 106%
[16]
  viability, T/C: 60.9%
[17]
  viability, T/C: 43.2%
[18]
  viability, T/C: 39.7%
Second compound 1 µM, first compound 0.316 µM
  viability, T/C: 34.5%
Second compound 1 µM, first compound 1 µM
  viability, T/C: 36.5%
[21]
  viability, T/C: 81.8%
[22]
  viability, T/C: 63.1%
[23]
  viability, T/C: 38.8%
[24]
  viability, T/C: 37.2%
Second compound 3.16 µM, first compound 0.316 µM
  viability, T/C: 36.6%
Second compound 3.16 µM, first compound 1 µM
  viability, T/C: 31.5%
[27]
  viability, T/C: 72.7%
[28]
  viability, T/C: 54.7%
[29]
  viability, T/C: 46.3%
[30]
  viability, T/C: 31.6%
Second compound 10 µM, first compound 0.316 µM
  viability, T/C: 35.1%
Second compound 10 µM, first compound 1 µM
  viability, T/C: 32.6%
